Broadly, the MIC is the least concentration at which growth counts as inhibited. As a reminder, the CC50 is the concentration giving 50% cytotoxicity.

Values after ≈ are worked out from the molar mass of the structure shown.

The subject of series [1] is Mycobacterium tuberculosis. The series can be described thus: Antimicrobial activity against Mycobacterium tuberculosis H37Rv after 4 weeks by agar dilution assay. The class given is functional. The settings on record: 672 h. A general note: In agar dilution the substance is mixed into plates at graded concentrations.
Series [2] deals with Mycobacterium tuberculosis. The experiment in a line: Ratio of NTZ MIC to compound MIC for Mycobacterium tuberculosis H37Rv. The class given is functional.
A short description of series [3]: Selectivity index, ratio of CC50 african green monkey Vero cells to MIC for Mycobacterium tuberculosis H37Rv. The class given is functional.
Series [4] in a line: Cytotoxicity against african green monkey Vero cells after 72 hrs by resazurin assay. The class given is cell-based. The settings on record: chlorocebus sabaeus. Background: Resazurin is reduced to fluorescent resorufin, in cell work by metabolically active cells.
Series [5] deals with Mycobacterium tuberculosis. The experiment in a line: Antimicrobial activity against Mycobacterium tuberculosis H37Rv after 11 days using [14]C labeled palmitic acid as substrate by radiometric Bactec 460TB method. The format is functional. The settings on record: 264 h.
Series [6] concerns Mycobacterium tuberculosis. The series can be described thus: Antimicrobial activity against replicating Mycobacterium tuberculosis. The format is functional.
In series [7] the test system is Mycobacterium tuberculosis. The series can be described thus: Antimicrobial activity against non-replicating Mycobacterium tuberculosis. The class given is functional.

For `COc1ccc(-c2csc(N/N=C3/CCCc4c(OC)cccc43)n2)cc1OC`, the MIC in series [1] came to 6.25 µg/mL (≈ 15.3 µM); in series [5], 6.25 µM (≈ 2.56 µg/mL). In addition, the “fold change (FC)” value in series [2] stood at 3. In addition, in series [3], the Ratio result is “>=39”. The compound also showed a CC50 at 72 h in series [4] of over 244 µM.
For the compound `COc1cccc2c1CCC/C2=N/Nc1nc(-c2ccc(Cl)cc2Cl)cs1`, 12.5 µg/mL (≈ 29.9 µM) was the least that counted as inhibitory in series [1] (MIC). In addition, the “fold change (FC)” value in series [2] came to 2.
For `COc1cccc2c1CCC/C2=N/Nc1nc(-c2ccc(F)cc2)cs1`, the MIC was 6.25 µg/mL (≈ 17 µM) in series [1] and 6.25 µM (≈ 2.3 µg/mL) in series [5]. Further, the “fold change (FC)” value in series [2] stood at 3. In addition, in series [3], the Ratio entry is “>=48”. Further, in series [4], the CC50 at 72 h was over 300 µM.
As for `COc1cccc2c1CCC/C2=N/Nc1nc(-c2cccc([N+](=O)[O-])c2)cs1`, in series [1], it took 12.5 µg/mL (≈ 31.7 µM) to inhibit growth (MIC). Also, the “fold change (FC)” value in series [2] is given as 2.
Regarding `COc1ccc(-c2csc(N/N=C/c3cn(Cc4ccc(Cl)cc4Cl)c4ccccc34)n2)cc1OC`, in series [1], the MIC was over 12.5 µg/mL.
Turning to `Clc1ccc(Cn2cc(/C=N/Nc3nc(-c4ccc(Cl)cc4Cl)cs3)c3ccccc32)c(Cl)c1`, the MIC in series [1] worked out at 12.5 µg/mL (≈ 22.9 µM).
Same read-out and setting: under `Fc1ccc(-c2csc(N/N=C/c3cn(Cc4ccc(Cl)cc4Cl)c4ccccc34)n2)cc1` stands over 12.5 µg/mL.
As to `Fc1ccc(Nc2nc(-c3ccc(F)cc3)cs2)cc1`, the figures for the MIC in series [1] and in series [5] were 1.8 µg/mL (≈ 6.24 µM) and 12.5 µM (≈ 3.6 µg/mL), respectively. Besides, the “fold change (FC)” value in series [2] came to 9.
`COc1ccc(OC)c(Nc2nc(-c3ccc(F)cc3)cs2)c1` registered an MIC in series [1] of over 12.5 µg/mL.
The same measure, in the same setting: under `COc1ccc(OC)c(Nc2nc(-c3cccc([N+](=O)[O-])c3)cs2)c1` stands over 12.5 µg/mL.
`COc1ccc(-c2csc(Nc3cc(OC)ccc3OC)n2)cc1` yielded an MIC in series [1] of over 12.5 µg/mL.
On the same count and under the same terms, under `COc1ccc(-c2csc(Nc3ccccc3C(F)(F)F)n2)cc1OC` stands over 12.5 µg/mL; under `Fc1ccc(-c2csc(Nc3ccccc3C(F)(F)F)n2)cc1`, over 12.5 µg/mL; under `O=[N+]([O-])c1cccc(-c2csc(Nc3ccccc3C(F)(F)F)n2)c1`, over 12.5 µg/mL.
The same measure, in the same setting: the result for `COc1ccc(-c2csc(Nc3ccccc3C(F)(F)F)n2)cc1` reads over 12.5 µg/mL; that for `NNC(=O)c1ccncc1` [ISONIAZID], under 1 µg/mL.
Take `CC(=O)Oc1ccccc1C(=O)Nc1ncc([N+](=O)[O-])s1` [NITAZOXANIDE]: the MIC in series [6] and in series [7] was 52.1 µM (≈ 16 µg/mL) in each case.
`CN[C@@H]1[C@H](O[C@H]2[C@H](O[C@H]3[C@H](O)[C@@H](O)[C@H](N=C(N)N)[C@@H](O)[C@@H]3N=C(N)N)O[C@@H](C)[C@]2(O)C=O)O[C@@H](CO)[C@H](O)[C@H]1O` [STREPTOMYCIN] had an MIC in series [5] of 6 µM (≈ 3.49 µg/mL).
For `O=C(Nc1ncc([N+](=O)[O-])s1)c1ccccc1O` [TIZOXANIDE], the MIC in series [6] and in series [7] was 60.4 µM (≈ 16 µg/mL) in each case.

These data come from ChEMBL document CHEMBL1828542, “Synthesis and biological evaluation of substituted 4-arylthiazol-2-amino derivatives as potent growth inhibitors of replicating Mycobacterium tuberculosis H₃₇Rv” (Bioorg Med Chem Lett, 2011).
